Consider ten compounds from US12551475B2, “Methods and compositions for treating RNA viral infections” (Model Medicines, Inc., priority 2020, dated 2026).

What is called EC50 is the midpoint of the concentration-response curve. In general, CC50 refers to the concentration at which the toxic effect on the cells reaches its halfway point. The low end stands for greater toxicity to the cells, the high end for lower toxicity to the cells. The GI50 is the concentration that inhibits growth by half.

Where a name gives a salt, the structure may show the parent alone. Read-outs that look alike come from different tables or passages of the source. Bounds are passed on as bounds.

Data set [1] deals with lysophosphatidic acyl transferase (LPAAT). Particulars: cytokine-activated LPAAT; read-out: IC50 (generation of phosphatidic acid); cited from earlier work.
Data set [2] has as its system SARS-CoV-2.
Data set [3] has as its system SARS-CoV-2. Nature of the data set: microbe, parasite or virus in culture.
The conditions of data set [4]: in vivo; cited from earlier work.
Data set [5] is described as follows: Uninfected host cell cytotoxicity counter screen. The format is cell-based, human. Conditions: human, uninfected HeLa-ACE2 cells; uninfected HeLa-ACE2, 24 h. How it is done:
Compounds were acoustically transferred into 1,536-well clear plates (Greiner Part. No. 789091). HeLa-ACE2 cells were maintained as described for the infection assay and seeded in the assay-ready plates at 400 cells/well in DMEM with 2% FBS and plates were incubated for 24 hours at 37 5% CO2. To assess cell viability, the Image-iT DEAD green reagent (Thermo Fisher) was used according to manufacturer instructions. Cells were fixed with 4% paraformaldehyde, and counterstained with DAPI. Fixed cells were imaged using the ImageXpress Micro Confocal High-Content Imaging System (Molecular Devices) with a 10× objective, and total live cells per well quantified in the acquired images using the Live Dead Application Module (MetaXpress).
Image analysis was carried out with MetaXpress (version 6.5.4.532). Primary in vitro screen and the host cell cytotoxicity counter screen data were uploaded to Genedata Screener, Version 16.0.3-Standard. Data were normalized to neutral (DMSO) […] inhibitor controls (2.5 μM remdesivir for antiviral effect and 10 μM puromycin for infected host cell toxicity). For the uninfected host cell cytotoxicity counter screen 40 μM puromycin (Sigma) was used as the positive control. For dose response experiments compounds were tested in technical triplicates on different assay plates and dose curves were fitted with the four parameter Hill Equation. Technical replicate data were analyzed using median condensing.
A general note: The purpose of a counterscreen is to sort out artefacts and off-target activity.

The subject of data set [6] is wild-type B-RAF-expressing human foreskin fibroblasts. Conditions: cited from earlier work.
Data set [7] has as its system cancer cell lines. Particulars: cited from earlier work.
The subject of data set [8] is B-RAFV^600E-expressing A375P melanoma cells. Particulars: cited from earlier work.
The subject of data set [9] is SARS-CoV-2. Conditions: ReFRAME screen, same methods (Bakowski et al, 2020); cited from earlier work.
Data set [10] deals with 3CL Protease (SARS-CoV-2) (Severe acute respiratory syndrome coronavirus 2, UniProt P0DTD1). Description: 3CL Protease (untagged, SARS-CoV-2) activity assay. The format is biochemical. From the text:
The 3CL Protease Activity Assay described in this example is designed to measure 3CL Protease activity for screening and profiling applications, in a homogeneous assay with no time-consuming washing steps. The assay can be performed in a 96-well format, with purified untagged 3CL Protease, fluorogenic substrate, and 3CL Protease assay buffer for 100 enzyme reactions. 3CL inhibitor GC376 was included as a positive control. See https://bpsbioscience.com/3cl-protease-intagged-sars-cov-2-assay-kit-78042.
3CL Protease (SARS-CoV-2), no tag*; 3CL Protease Substrate (10 mM); 3CL Protease Assay Buffer; GC376, MW=507.5; 0.5 M DTT; Black, low binding microtiter plate; Plate sealing film. Fluorescent microplate reader capable of reading exc/em=360 nm/460 nm
All Samples and Controls were Tested in Duplicate.
• 1) Added 0.5 M DTT to 3CL Protease Assay Buffer so final DTT concentration was 1 mM. (e.g., added 10 μl of 0.5 M DTT to 5 ml assay buffer) (DTT was added just before use. Enough DTT-containing buffer as required for the assay was prepared. Remaining assay buffer was stored at −20° C.). • 2) Thaw 3CL Protease was thawed on ice. Upon first thaw, tube containing enzyme was briefly spun to recover the full content of the tube. Aliquoted 3CL Protease into single use aliquots. Stored remaining undiluted enzyme in aliquots at −80° C. • 3) Diluted 3CL Protease in Assay buffer (with 1 mM DTT) at 0.5 ng/μl (15 ng per reaction). • 4) Added 30 μl diluted 3CL Protease enzyme solution to wells designated as “Positive Control”, “Inhibitor Control” and “Test Sample”. Added 30 μl Assay buffer (with 1 mM DTT) to the “Blank” wells.
• 5) Diluted 50 μg GC376 in 200 μl water to obtain a 500 μM solution. Aliquoted and stored remaining solution in aliquots at −80° C. Added 10 μl GC376 (500 μM) to the wells labeled “Inhibitor Control”. • 6) Prepared the inhibitor solution.
(If the inhibitor compound was dissolved in DMSO, made a 100-fold higher concentration of the compound than the highest concentration tested in DMSO. Then made a 20-fold dilution in 1× assay buffer (at this step the compound concentration is 5-fold higher than the final concentration)).
If the inhibitor compound is dissolved in water, made a solution of the compound 5-fold higher than the final concentration in 3CL Protease assay buffer (with 1 mM DTT). For example, diluting 50 μg GC376 in 200 μl water (step 5) creates a 500 μM solution. Adding 10 μl to the assay (final volume 50 μl) results in a 100 μM final concentration.
7) Added 10 μl inhibitor to each well designated “Test Sample”. Added 10 μl 1× assay buffer or 5% DMSO in water (depending on which inhibitor solution is used) to “Blank” and “Positive Control” wells. • 8) Preincubated enzyme with the inhibitor for 30 min at room temperature with slow shaking. • 9) Diluted 10 mM 3CL Protease substrate 1:50 in assay buffer with DTT, to make a 200 μM solution. Diluted only enough as was required for the assay. • 10) Started reaction by adding 10 μl of the substrate solution to each well (Final concentration of the 3CL Protease substrate in a 50 μl reaction was 40 μM). • 11) Incubated for 4 hours at room temperature with slow shaking. Sealed the plate with the plate sealer. Measured the fluorescence intensity in a microtiter plate-reading fluorimeter capable of excitation at a wavelength 360 nm and detection of emission at a wavelength 460 nm. The fluorescence intensity can also be measured kinetically. “Blank” value was subtracted from all other values. Data Analysis
3CL Protease activity assays were performed in duplicates. The fluorescence data were analyzed using the computer software, Graphpad Prism. In the absence of the compound, the fluorescence (Ft) in each data set was defined as 100% activity. In the absence of the 3CL Protease, the fluorescence (Fb) in each data set was defined as 0% activity. […]

The test system of data set [11] is thymocytes. Particulars: read-out: IC50 (apoptosis); cited from earlier work.
For data set [12], the system named is HeLa cells. Particulars: read-out: IC50 (apoptosis); cited from earlier work.
The subject of data set [13] is MCF-7 cell line. Conditions: read-out: IC50 (antitumor activity in vitro); cited from earlier work.
Data set [14] deals with Renal 1983 cell line. Conditions: read-out: IC50 (antitumor activity in vitro); cited from earlier work.
[15] abbreviates: Severe acute respiratory syndrome coronavirus 2, HeLa-ACE2, 24 h.

As for `C[C@@H](O)CCCCn1c(=O)c2c(ncn2C)n(C)c1=O` [(R)-LSF, 3,7-dihydro-1-[(5R)-5-hydroxyhexyl]-3,7-dimethyl-1H-purine-2,6-dione], in data set [1], the IC50 is 0.6 µM.

With `Cc1cccc(/C=N/Nc2cc(N3CCOCC3)nc(OCCc3ccccn3)n2)c1` [apilimod], the “increase in EC50 from MOI=1 to MOI=26” value in data set [2] is on record as 3.7 fold. Also, in data set [3] (Severe acute respiratory syndrome coronavirus 2, HeLa-ACE2, read-out: maximal efficacy (uninfected cells at the highest effective concentrations)), the Emax is 85 to 90%.

For the compound `CCC(CC)COC(=O)[C@H](C)N[P@](=O)(OC[C@H]1O[C@@](C#N)(c2ccc3c(N)ncnn23)[C@H](O)[C@@H]1O)Oc1ccccc1` [Remdesivir], the “increase in EC50 from MOI=1 to MOI=26” value in [2] was 2.7 fold. In addition, the “half-life (t 1/2)” value in data set [4] was 1 h. This compound also came in with a 50% effective concentration (EC50) in [3] (setting [15]) of 0.13 µM.

For `Nc1ncnc2c1nc(Cl)n2[C@@H]1O[C@@H]2COP(=O)(O)O[C@H]2[C@H]1O` [Tocladesine, 8-chloroadenosine 3′,5′-monophosphate], in data set [2], the “SI (selectivity index, CC50/EC50)” value is above 4.15 and the “activity in the HeLa-ACE2 cell-based SARS-CoV-2 assay (in words)” value is on record as “active against COVID-19”. Further, the “activity in the HeLa-ACE2 cell-based SARS-CoV-2 assay (in words)” value in data set [2] (listed as tocladesine) is recorded as “demonstrated activity”. The CC50 at 24 h in data set [5] is above 39.8 µM. For the same compound, in data set [3] (setting [15]), the EC50 was above 9.59 µM.

For `CC(C)(C)c1nc(-c2cccc(NS(=O)(=O)c3c(F)cccc3F)c2F)c(-c2ccnc(N)n2)s1` [Dabrafenib, N-[3-[5-(2-amino-4-pyrimidinyl)-2-(1,1-dimethylethyl)-4-thiazolyl]-2-fluorophenyl]-2,6-difluorobenzenesulfonamide], the “EC200 (caspase-3/7 activation)” value in data set [6] is > 10,000 nM; in data set [8], 71 nM. The GI50 in data set [7] (16 cancer cell lines expressing mutant B-RAFV600E) is below 0.2 µM; in data set [7] (19 cell lines expressing wild-type Ras and RAF) it was below 7 µM; in data set [7] (five cell lines expressing other B-RAF mutants) it was below 0.03 µM; in data set [7] (four B-RAFV600E lines, 133 wild-type Ras and Raf lines, 18 mutant Ras lines not inhibited) it was above 10 µM.

On to `O=C(c1ccc(OCCN2CCCCC2)cc1)c1c(-c2ccc(O)cc2)sc2cc(O)ccc12` [raloxifene], for which the EC50 in data set [9] was 4.13 µM.

As to `Cc1c2c(nn1C)CSCc1cc(n(C)n1)CSc1cc(c3ccccc3c1)OCCCc1c(C(=O)O)n(C)c3c-2c(Cl)ccc13` [AZD-5991], in data set [2], the “SI (selectivity index, CC50/EC50)” value came to 0.06 and the “activity in the HeLa-ACE2 cell-based SARS-CoV-2 assay (in words)” value is on record as “demonstrated activity”. Also, in data set [5], the CC50 at 24 h is 0.527 µM. Besides, the EC50 in data set [3] (setting [15]) was 8.81 µM.

Take `COc1ccc2c3c1O[C@H]1C[C@@H](O)C=C[C@@]31CCN(C)C2` [Galantamine, (4aS,6R,8aS)-4a,5,9,10,11,12-hexahydro-3-methoxy-11-methyl-6H-benzofuro[3a,3,2-ef][2]benzazepin-6-ol]: in data set [10] (Galantamine 0.009 μM), the “3CL Protease Activity (Fluorescence count) Repeat1” value turned out to be 759 and the “3CL Protease Activity (Fluorescence count) Repeat2” value is 768. Moreover, in data set [10] (Galantamine 0.018 μM), the “3CL Protease Activity (Fluorescence count) Repeat1” value stood at 746 and the “3CL Protease Activity (Fluorescence count) Repeat2” value was 752. For the same compound, in [10] (Galantamine 0.070 μM), the “3CL Protease Activity (Fluorescence count) Repeat1” value was found to be 785 and the “3CL Protease Activity (Fluorescence count) Repeat2” value was 783. In addition, in data set [10] (Galantamine 0.14 μM), the “3CL Protease Activity (Fluorescence count) Repeat1” value worked out at 737 and the “3CL Protease Activity (Fluorescence count) Repeat2” value was determined as 760. Further, in data set [10] (Galantamine 0.28 μM), the “3CL Protease Activity (Fluorescence count) Repeat1” value turned out to be 761 and the “3CL Protease Activity (Fluorescence count) Repeat2” value is given as 797. For the same compound, in data set [10] (Galantamine 4.5 μM), the “3CL Protease Activity (Fluorescence count) Repeat1” value was 593 and the “3CL Protease Activity (Fluorescence count) Repeat2” value is recorded as 543. Moreover, in [10] (read-out: % Activity Repeat1), the activity at 0.009 µM turned out to be 98%, the activity at 0.018 µM was found to be 96%, the activity at 0.07 µM came to 102% and the activity at 0.14 µM is 95%. Further, in data set [10] (read-out: % Activity Repeat1), the activity at 0.28 µM turned out to be 98% and the activity at 4.5 µM was determined as 74%. Besides, in data set [10] (read-out: % Activity Repeat2), the activity at 0.009 µM was determined as 99%, the activity at 0.018 µM is 97%, the activity at 0.07 µM stood at 102% and the activity at 0.14 µM worked out at 98%. Further, in [10] (read-out: % Activity Repeat2), the activity at 0.28 µM came out at 104% and the activity at 4.5 µM was 66%. The “effect on 3CL Protease activity (in words)” value in data set [10] (test range 0.009-4.5 μM) is given as “inhibited 3CL Protease activity”.

Consider `COc1ccc2c(c1OC)C(=O)O[C@@H]2[C@H]1c2c(cc3c(c2OC)OCO3)CCN1C` [Noscapine, (3S)-6,7-dimethoxy-3-[(5R)-5,6,7,8-tetrahydro-4-methoxy-6-methyl-1,3-dioxolo[4,5-g]isoquinolin-5-yl]-1(3H)-isobenzofuranone, monohydrochloride], for which the IC50 in data set [11] is 10 µM; in data set [12] it was 25 µM; in [13] it was 42.3 µM; in data set [14], 39.1 µM.

As to `COc1ccc(C[C@H](N)C(=O)N[C@H]2[C@@H](O)[C@H](n3cnc4c(N(C)C)ncnc43)O[C@@H]2CO)cc1` [puromycin], the EC50 in [3] (Severe acute respiratory syndrome coronavirus 2, HeLa-ACE2, read-out: EC50 (total cell numbers per well, compound toxicity in the context of infection)) amounted to 0.547 ± 0.027 µM.
